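Compound exposure: 48 hours, 5 concentrations, 96-well plates. GI50 is the concentration that inhibits growth by half. Definition used: TGI = concentration required for complete inhibition of growth.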
Key:
Test in all cases: inhibition of tumour cell growth, NCI panel, 48 h
RPMI-8226 leukemia = system: RPMI-8226 leukemia
NCI-H522 lung = system: NCI-H522 lung
CCRF-CEM leukemia = system: CCRF-CEM leukemia
A498 renal = system: A498 renal
ACHN renal = system: ACHN renal
SR leukemia = system: SR leukemia
MCF7 breast = system: MCF7 breast
MDA-N = system: MDA-N
XF 498 CNS = system: XF 498 CNS
KM20L2 colon = system: KM20L2 colon
M19-MEL melanoma = system: M19-MEL melanoma
DLD-1 colon = system: DLD-1 colon
DMS 114 small cell lung = system: DMS 114 small cell lung

SMILES | GI50 (RPMI-8226 leukemia) | TGI (RPMI-8226 leukemia) | GI50 (NCI-H522 lung) | TGI (NCI-H522 lung) | GI50 (CCRF-CEM leukemia) | TGI (CCRF-CEM leukemia) | GI50 (A498 renal) | TGI (A498 renal) | GI50 (ACHN renal) | TGI (ACHN renal) | GI50 (SR leukemia) | TGI (SR leukemia) | GI50 (MCF7 breast) | TGI (MCF7 breast) | TGI (MDA-N) | TGI (XF 498 CNS) | TGI (KM20L2 colon) | TGI (M19-MEL melanoma) | TGI (DLD-1 colon) | TGI (DMS 114 small cell lung)
COc1ccc(-c2c(C#N)cnc(N)c2-c2nc3cc(C)c(C)cc3[nH]2)cc1 | 32.5 µM | > 100 µM | 4.74 µM | 54.7 µM | 25.6 µM | > 100 µM | 10.7 µM | 63.6 µM | 39.8 µM | > 100 µM | 5.64 µM | > 100 µM | 6.34 µM | > 100 µM | – | – | – | – | – | –
COc1ccc2oc3c(ccc[n+]3C)c(=O)c2c1 | – | – | – | > 100 µM | – | > 100 µM | – | > 100 µM | – | > 100 µM | – | > 100 µM | – | > 100 µM | > 100 µM | – | – | – | – | –
CC(=O)Nc1nc(C)c(-c2cc3c(c(S(C)(=O)=O)c2)C(=O)N([C@@H](C)C2CC2)C3)s1 | 17.6 µM | 52.9 µM | 25.4 µM | > 100 µM | 1.18 µM | > 100 µM | 19 µM | 53.5 µM | 28.3 µM | > 100 µM | 26.8 µM | > 100 µM | 23.7 µM | > 100 µM | – | – | – | – | – | –
CC1CC(c2ccc([N+](=O)[O-])cc2)=Nc2ccccc2S1=O (stereo not given) | – | 31.9 µM | – | 25.9 µM | – | 42.2 µM | – | 43.2 µM | – | 40.6 µM | – | 76.6 µM | – | – | – | 95.1 µM | 29.9 µM | 30.8 µM | 33.6 µM | 33.2 µM
O=c1ccc2nc3ccc(O)cc3oc-2c1 | – | 30.8 µM | – | > 73.5 µM | – | > 100 µM | – | > 100 µM | – | > 100 µM | – | – | – | > 52.7 µM | 3.43 µM | – | – | – | – | –
Cc1ccc(C(=O)C(C)N)cc1C (stereo not given) | – | > 100 µM | – | > 100 µM | – | > 100 µM | – | > 100 µM | – | > 100 µM | – | – | – | – | – | > 100 µM | > 100 µM | > 100 µM | > 100 µM | > 100 µM
CC(=O)O[C@@H]1CN(S(=O)(=O)c2ccc(C)cc2)C[C@@H]1C1CCCCC1 | – | 67.7 µM | – | – | – | > 100 µM | – | 55.1 µM | – | > 100 µM | – | > 100 µM | – | 42.1 µM | 54.7 µM | – | – | – | – | –
NC(=O)N/N=C/c1ccccc1O | – | > 100 µM | – | – | – | > 100 µM | – | > 100 µM | – | > 100 µM | – | > 100 µM | – | > 100 µM | – | – | – | – | – | –
COc1cc2c(cc1O)N=C[C@@H]1CCC(O)N1C2=O (mixture of isomers) | – | 2.39 µM | – | 0.636 µM | – | 1.66 µM | – | 0.928 µM | – | – | – | – | – | 37 µM | – | 1.2 µM | 24.9 µM | 4.81 µM | 13.5 µM | 1.41 µM
CC(CNc1nc(Nc2ccc(Cl)c(Cl)c2)nc(C(Cl)(Cl)Cl)n1)N(C)C (stereo not given) | 1.85 µM | 4.58 µM | – | – | – | – | – | – | 1.56 µM | 2.94 µM | – | – | 1.7 µM | 3.16 µM | – | – | – | – | – | –
COc1ccc(/C=C/C(=O)/C=C(/C=C/c2ccc(OC)c(OC)c2OC)OB(F)F)c(OC)c1OC | 0.466 µM | 2.77 µM | 1.35 µM | 4.62 µM | 0.366 µM | 2.08 µM | 3.35 µM | 10.2 µM | – | – | 0.278 µM | > 100 µM | 0.502 µM | > 100 µM | – | – | – | – | – | –
Nc1ccc2c(c1)S(=O)(=O)c1cc(N)ccc1-2 | – | – | – | > 100 µM | – | – | – | > 100 µM | – | > 100 µM | – | – | – | > 100 µM | > 100 µM | – | – | – | – | –
CCc1ncc(C(C)(O)c2ccccc2)n1Cc1ccccc1 (stereo not given) | – | > 100 µM | – | > 100 µM | – | > 100 µM | – | – | – | > 100 µM | – | 44.1 µM | – | > 100 µM | – | – | – | – | – | –

— PubChem BioAssay (NCI)
